Measured values published in paper PMC5913127 (Scientific Reports, 2018).

Columns and labels:
aducanumab = assay: ELISA of aducanumab on plates coated with truncated Aβ peptides; assay type: binding, human; conditions: for EC50: aducanumab on peptide coated or captured at 5 μg/mL (multivalent effects), antibody from 100 nM, 2 h room temperature, read-out: Binding activity (EC50); for Fold reduction (relative to Aβ1-42): reduction of aducanumab binding affinity, peptide 5 μg/mL
Procedure: For N-terminally truncated Aβ peptides, untagged peptides were used. For ELISA, 96-well microplates were coated with 5 μg/mL peptide in Coating Buffer (15 mM Na2CO3, 35 mM NaHCO3, pH 9.6) overnight at 4 °C. Plates were washed and non-specific binding sites were blocked with 2% BSA in PBS for 1 h at 25 °C. Serially diluted antibody starting from 100 nM in Assay Buffer (2% BSA in PBS) was added, and the plates were incubated for 2 h at room temperature. Binding was determined by incubation with an HRP-conjugated goat anti-human polyclonal antibody (Jackson ImmunoResearch) followed by measurement of HRP activity using Ultra TMB ELISA Colorimetric Substrate Solution (Thermo Fisher Scientific). For C-terminally truncated Aβ peptides, biotin-conjugated peptides were used. The biotin was attached synthetically to the C terminus of the protein by incorporation of a non-native lysine residue. For ELISA, biotin-conjugated peptides were incubated for 1 h at room temperature, at a concentration of 5 μg/mL in Assay Buffer, using plates that were pre-coated with neutravidin (Thermo Fisher Scientific, Reacti-Bind plates). Plates were washed, antibodies diluted serially in Assay Buffer were added, and binding was measured as described above.

Aβ (Monomer, Aggregate) = conditions: A = aggregate, M = monomer; ref [9]–[19],[54] as given per antibody in column Ref. of Table 1; cited from earlier work

Row | EC50 (aducanumab) [µM] | Substance | Fold reduction (relative to Aβ1-42) (aducanumab) [fold] | Fold reduction (relative to Aβ1-42) (aducanumab; listed as Aβ5-42) [fold] | Aβ selectivity (Monomer, Aggregate) (Aβ (Monomer, Aggregate))
1 | 0.036 | 5–42: untagged N-terminally truncated Aβ peptide | 96 | > 40 | 
2 | 0.14 | 6–42: untagged N-terminally truncated Aβ peptide | 390 |  | 
3 | 0.15 | 8–42: untagged N-terminally truncated Aβ peptide | 400 |  | 
4 |  | solanezumab: anti-Aβ clinical candidate antibody; mouse analog m266 |  |  | M ≫ A
